Measurements taken from patent US7858635B2 (priority 2005, dated 2010).
Read-outs that look alike come from different tables or passages of the source.

Columns and labels:
[1] = biological target: T1, M1 muscarinic receptor (Homo sapiens, UniProt P11229); test: Functional mobilization of intracellular calcium (FLIPR, Fluo-3), M1-CHO cells; assay type: cell-based; settings: for Emax: 100% efficacy is the maximum response obtained with the Carbachol control, read-out: M1 Efficacy
T1 construct: expressed in transfected cells; host or cells: CHO cells (M1-CHO, under zeocin and G418 selection)
T1 sequence (P11229 1-460): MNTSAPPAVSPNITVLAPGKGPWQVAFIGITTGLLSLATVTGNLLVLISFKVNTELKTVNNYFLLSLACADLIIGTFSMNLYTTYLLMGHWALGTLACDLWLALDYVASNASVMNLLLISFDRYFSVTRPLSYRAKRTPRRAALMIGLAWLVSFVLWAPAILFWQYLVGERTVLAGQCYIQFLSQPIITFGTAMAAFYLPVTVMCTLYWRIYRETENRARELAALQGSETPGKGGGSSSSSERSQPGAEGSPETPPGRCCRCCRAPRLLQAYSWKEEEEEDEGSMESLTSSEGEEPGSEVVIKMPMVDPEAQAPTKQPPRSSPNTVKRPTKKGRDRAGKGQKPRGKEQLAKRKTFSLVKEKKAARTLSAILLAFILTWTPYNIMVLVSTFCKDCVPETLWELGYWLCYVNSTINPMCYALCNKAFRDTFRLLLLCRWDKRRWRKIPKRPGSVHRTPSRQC
Procedure, shortened: (§1)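 CHO lines stably carrying the muscarinic subtype, dye-loaded with Fluo-3 at 37° C for 60-90 min, receive test compound in 0.5% DMSO. Agonist effects are read directly; antagonist effects against carbachol at EC80 after 15 min pre-incubation.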

[2] = biological target: T2, M4 muscarinic receptor (Homo sapiens, UniProt P08173); test: Functional mobilization of intracellular calcium (FLIPR, Fluo-3), M4-CHO cells; assay type: cell-based; settings: for Emax: 100% efficacy is the maximum response obtained with the Carbachol control, read-out: M4 Efficacy
T2 construct: expressed in transfected cells; host or cells: CHO cells (M4-CHO, under puromycin, zeocin and blasticidin selection)
T2 sequence (P08173 1-479): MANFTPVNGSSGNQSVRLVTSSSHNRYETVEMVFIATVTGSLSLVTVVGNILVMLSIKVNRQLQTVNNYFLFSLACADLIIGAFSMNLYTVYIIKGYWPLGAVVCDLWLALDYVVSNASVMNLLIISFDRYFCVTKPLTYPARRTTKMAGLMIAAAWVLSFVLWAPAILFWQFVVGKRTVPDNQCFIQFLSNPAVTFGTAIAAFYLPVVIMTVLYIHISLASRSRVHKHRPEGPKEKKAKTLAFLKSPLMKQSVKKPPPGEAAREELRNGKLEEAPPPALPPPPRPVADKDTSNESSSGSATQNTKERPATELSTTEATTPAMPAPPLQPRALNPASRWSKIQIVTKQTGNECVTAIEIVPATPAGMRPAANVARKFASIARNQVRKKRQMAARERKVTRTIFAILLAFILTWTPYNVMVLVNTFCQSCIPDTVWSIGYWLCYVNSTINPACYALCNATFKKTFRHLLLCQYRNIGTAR
Procedure, shortened: as §1

[3] = compound nos. 1-454, M1-CHO cells, calcium mobilization
[4] = compound nos. 1-454, M4-CHO cells, calcium mobilization

COC(=O)N1C2CCC1CC(N1CCC3(CC1)COc1ccc(F)cc13)C2 (stereo not drawn) [compound 156]
Emax ([1]; compound nos. 1-454): 65 to 85%
M1 Activity [1, 3]: +++ (activity was measured to be less than or equal to 0.7 μM)
Emax ([2]; compound nos. 1-454): > 70%
M4 Activity [2, 4]: +++ (activity was measured to be less than or equal to 0.1 μM)

CCc1nsc(N2CCC(N3CCC4(CC3)C[C@H](N(C)C(C)=O)c3ccccc34)CC2)n1 [compound 484]
Emax ([1]; compound nos. 455-509): > 100%
M1 Activity ([1]; compounds 455-509): +++ (activity was measured to be less than or equal to 2.0 μM)
Emax ([2]; compound nos. 455-509): 25 to 100%
M4 Activity ([2]; compounds 455-509): ++ (activity was measured to be between 2.0 μM and 5.0 μM)

CCOC(=O)N1C2CCC1CC(N1CCC3(CC1)CN(C(C)=O)c1ccc(F)cc13)C2 (stereo not drawn) [compound 371]
Emax ([1]; compound nos. 1-454): 65 to 85%
M1 Activity [1, 3]: +++ (activity was measured to be less than or equal to 0.7 μM)
Emax ([2]; compound nos. 1-454): > 70%
M4 Activity [2, 4]: + (activity was measured to be greater than or equal to 4.0 μM)

CCOC(=O)N1CCC(N2CCC3(CC2)CN(C(C)=O)c2ccc(-c4ccncc4)cc23)CC1 [compound 105]
Emax ([1]; compound nos. 1-454): < 65%
M1 Activity [1, 3]: ++ (activity was measured to be between 0.7 μM and 3.0 μM)
Emax ([2]; compound nos. 1-454): < 55%
M4 Activity [2, 4]: + (activity was measured to be greater than or equal to 4.0 μM)

CCOC(=O)N1CCC(N2CCC3(CC2)CN(C(C)=O)c2ccc(-c4cccc(C)c4)cc23)CC1 [compound 6]
Emax ([1]; compound nos. 1-454): 65 to 85%
M1 Activity [1, 3]: +++ (activity was measured to be less than or equal to 0.7 μM)
Emax ([2]; compound nos. 1-454): 55 to 70%
M4 Activity [2, 4]: ++ (activity was measured to be between 0.1 μM and 4.0 μM)

CN(C)C(=O)N1CC2(CCN(C3CC4CCC(C3)N4C(=O)OCCF)CC2)c2cc(F)ccc21 (stereo not drawn) [compound 32]
Emax ([1]; compound nos. 1-454): > 85%
M1 Activity [1, 3]: +++ (activity was measured to be less than or equal to 0.7 μM)
Emax ([2]; compound nos. 1-454): 55 to 70%
M4 Activity [2, 4]: +++ (activity was measured to be less than or equal to 0.1 μM)

CN(C)C(=O)N1CC2(CCN(C3CCN(c4cnc(Br)cn4)CC3)CC2)c2ccccc21 [compound 509]
Emax ([1]; compound nos. 455-509): > 100%
M1 Activity ([1]; compounds 455-509): ++ (activity was measured to be between 2.0 μM and 5.0 μM)
Emax ([2]; compound nos. 455-509): 25 to 100%
M4 Activity ([2]; compounds 455-509): ++ (activity was measured to be between 2.0 μM and 5.0 μM)

CCOC(=O)N1C2CCC1CC(N1CCC3(CC1)CN(C(=O)O[C@@H]1CCOC1)c1ccc(F)cc13)C2 (stereo partly drawn) [compound 344]
Emax ([1]; compound nos. 1-454): 65 to 85%
M1 Activity [1, 3]: +++ (activity was measured to be less than or equal to 0.7 μM)
Emax ([2]; compound nos. 1-454): < 55%
M4 Activity [2, 4]: ++ (activity was measured to be between 0.1 μM and 4.0 μM)

CC(C)C(=O)N(C)[C@H]1CC2(CCN(C[C@H]3C[C@H]4CC[C@H]3C4)CC2)c2ccccc21 [compound 246]
Emax ([1]; compound nos. 1-454): < 65%
M1 Activity [1, 3]: ++ (activity was measured to be between 0.7 μM and 3.0 μM)
Emax ([2]; compound nos. 1-454): > 70%
M4 Activity [2, 4]: ++ (activity was measured to be between 0.1 μM and 4.0 μM)

CC(=O)N1CC2(CCN(C3CCOCC3)CC2)c2cc(F)ccc21 [compound 268]
Emax ([1]; compound nos. 1-454): < 65%
M1 Activity [1, 3]: + (activity was measured to be greater than or equal to 3.0 μM)
Emax ([2]; compound nos. 1-454): < 55%
M4 Activity [2, 4]: + (activity was measured to be greater than or equal to 4.0 μM)

C1=C[C@H]2C[C@H]1C[C@@H]2CN1CCC2(CCc3ccccc32)CC1 [compound 263]
Emax ([1]; compound nos. 1-454): < 65%
M1 Activity [1, 3]: +++ (activity was measured to be less than or equal to 0.7 μM)
Emax ([2]; compound nos. 1-454): < 55%
M4 Activity [2, 4]: +++ (activity was measured to be less than or equal to 0.1 μM)

CC(=O)N1CC2(CCN(C3CCN(C(=O)O[C@@H]4CCOC4)CC3)CC2)c2cc(C)ccc21 [compound 279]
Emax ([1]; compound nos. 1-454): < 65%
M1 Activity [1, 3]: ++ (activity was measured to be between 0.7 μM and 3.0 μM)
Emax ([2]; compound nos. 1-454): < 55%
M4 Activity [2, 4]: ++ (activity was measured to be between 0.1 μM and 4.0 μM)
